# Experimental data as given in patent US20110152269A1, “PROCESS FOR TREATING ANIMAL HABITATS” (H&S Chemical Company, Inc., priority 2001, published 2011).
# Legend:
# [1] = Ammonia concentration in treated poultry houses during grow out; conditions: houses and bedding sprayed with 200 ppm aqueous solution before placement of birds; two houses of 26,000 birds; wood chip bedding; 57 day grow out
# Experimental: Two poultry houses containing 26,000 birds each were treated, by spraying the houses and bedding contained therein, with an aqueous solution of a product sold under the trademark PLT, at a concentration of 200 ppm. Treatment was effected prior to placement of the birds in the poultry houses. The bedding utilized was popular wood chips. After 57 days the grow out was complete. During the grow out periods the concentration of ammonia in the poultry houses varied between 30 and 70 ppm. […] Two poultry houses containing 26,000 birds each were treated by spraying the houses and bedding contained therein with an aqueous solution of TCM, at a concentration of 200 ppm. Treatment was effected prior to placement of the birds in the poultry houses. The bedding utilized was popular wood chips. After 57 days the grow out was complete. During the grow out the concentration of ammonia in the poultry houses never exceeded 20 ppm.
# salmonella = experiment: Monitoring for salmonella in treated poultry houses during grow out; conditions: houses and bedding sprayed with 200 ppm aqueous solution before placement of birds; two houses of 25,000 birds; wood chip bedding; 56 day grow out
# Experimental: Two poultry houses containing 25,000 birds each were treated by spraying the houses and bedding contained therein with an aqueous solution of TCM, at a concentration of 200 ppm. Treatment was effected prior to placement of the birds in the poultry house. The bedding utilized was popular wood chips. After 56 days the grow out was complete. During the grow out the presence of salmonella was monitored.
# An untreated poultry house containing 25,000 birds was monitored during a 56 day grow out for the presence of salmonella. The bedding utilized was popular wood chips. After 56 days the grow out was complete. During the grow out the poultry house tested positive for salmonella.
substance,measurement,setting,value
trichloromelamine [TCM],concentration of ammonia in the poultry houses,[1],≤ 20 ppm
same,presence of salmonella during the grow out,salmonella,no salmonella was detected
